Like-named read-outs stand apart in the source and are kept apart here.
Tests used:
[1] = Stability in human hepatocytes; assay type: in vitro ADME; details: for half-life at 5 µM: t1/2, Human Hepatocytes; for half-life: 5 μM, 1 million cells/ml, 37° C., human hepatocytes
[2] = Permeability in porcine brain endothelial cell blood-brain barrier model; assay type: in vitro ADME; details: pig (endothelial cells), co-cultured with rat astrocytes, pH 7.4, PBECs/As blood-brain barrier model, luminal to basal; Diastereoisomer A; read-out: Papp Diastereoisomer A
Text: Compounds disclosed herein show the potential to reach mammalian brain by crossing the blood-brain barrier (BBB) from systemic circulation. […] The porcine brain endothelial cell permeability assay is an in vitro BBB model to be used for the prediction of central nervous system (CNS) drug permeability in vivo and for ranking or prioritization of compounds according to their permeability. This system can also be used for mechanistic studies and drug delivery strategies via receptor-mediated transport (transcytosis). The system is a two-dimensional co-culture, non-contact model of two types of primary cells: primary brain endothelial cells obtained from fresh porcine brains, and primary rat astrocytes, obtained from neonatal rats. This ensures barrier formation and functional expression of key transporters.
The endothelial cells were cultured on rat-tail collagen type I and human fibronectin coated Transwell polycarbonate inserts (surface area 0.7 cm^2; pore size 0.4 μm) and the inserts were placed in 24-well plates containing confluent rat astrocytes. This system allows for the formation of a differentiated BBB model suitable for compound permeability in 10 days.
On the day of the experiment, culture medium was removed and cells were pre-incubated for 30 min with HBSS containing 20 mM Hepes pH 7.4 and 0.1% BSA. Donor volume (apical) was 400 μl and receiver volume (basal) 900 μl. Compounds were diluted in assay medium (at the desired concentration) and added to the luminal side (to mimic blood to brain passage). Transport was measured usually after 60 min by detecting the amount of compound from the basal (brain side). The integrity of the cell layers was assessed by measuring the transendothelial electrical resistance (TEER) and by monitoring FITC-dextran (40 KDa) permeation. Inserts with TEER values […] were selected for permeability studies. As FITC-dextran cannot freely permeate lipophilic barriers, a high degree of FITC-dextran transport indicates poor integrity of the cell layer and wells with high FITC-dextran permeability were excluded. FITC-dextran was included as internal control in each insert used for permeability studies. Fluorescence was measured using a fluorimetric detector. Radioactivity was measured by scintillation counting. For LC-MS/MS analysis, aliquots (200 μl) from the basal compartment were diluted with an equal volume of 100% acetonitrile containing 0.1% formic acid, centrifuged to remove cell debris, and evaporated under N2. After reconstitution, samples were analyzed by LC-MS/MS. Mass balance was determined considering the amount of compound recovered in the donor and receiver chamber at the end of the assay relative to the amount added to the donor chamber at time 0.
Permeability was defined as the apparent permeability coefficient (Papp), which is a measure of the appearance rate of the compound in the receiver chamber, expressed in cm/s. Papp is calculated according the following equation: Papp[cm/sec]=Vd*ΔMr/A*Md*Δt, Equation 2: where
Vd=volume in the donor compartment in cm^3 or mL;
ΔMr=total amount of compound in the receiver compartment after t seconds;
Md=donor amount (added at time 0)
Δt=time measured in seconds
A=filter area in cm^2 (for 24 well plate, A=0.7 cm^2).
To correct for the contribution of filter and substrate, Papp was also determined for the cell-free system. Permeability of the endothelial cell layer was determined using the following equation: […], Equation 3: where
Ptotal=the P of the total system,
Pf=P for the cell-free filter, and
Pe=P for the endothelial cell layer alone. In this equation, the total resistance of the system towards passage of a substance is additively composed of two […] resistances: that of the cell monolayer and that of the filter.

[3] = system: PANK2 silenced human neuroblastoma IMR32 cells (PANK2−/−); assay: Coenzyme A assay in PANK2 silenced cells (LC-MS quantification of free CoA); assay type: cell-based; details: compound added twice (24 h + 24 h), relative to 0.1% DMSO controls
Method in brief: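 Free intracellular CoA was measured by positive-mode LC-MS/MS of 20% TFA extracts, taking 2 μl per 10^6 cells as intracellular volume. Cells were IMR32 with stable lentiviral PANK2 knockdown, dosed twice 24 h apart (48 h total, 0.1% DMSO). Output is fold increase over vehicle.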

[4] = Stability in mouse plasma; assay type: in vitro ADME
Method in brief: (§1)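 Test compound at 3 μM (0.1% DMSO) was incubated in mouse or human plasma at 37 °C and sampled in duplicate at 0, 10, 20, 30, 40 and 60 min. Reactions were stopped with acetonitrile/formic acid containing internal standard. Remaining parent was measured by UPLC-MS/MS without a calibration curve.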

[5] = Stability in mouse hepatocytes; assay type: in vitro ADME
Experimental: Stability in hepatocytes for select compounds disclosed in the application was evaluated in two species (mouse and human) according to the following procedure. Compounds and positive control samples were dissolved in 100% DMSO at 5 mM. Cryopreserved hepatocytes were thawed and resuspended in Hepatocyte Basal Medium (HBM-Lonza CC-3199) supplemented with CC-4182 (complete hepatocyte culture medium). Test compounds were diluted into cell suspension (1 million cells/ml) from the stock solutions to have a test compound concentration of 5 μM (0.1% DMSO). Incubation was performed in 24-well plates, at 37° C. in a DUBNOFF water bath, under low shaking. Each compound was tested at 6 time points, in duplicates (0, 15, 30, 60, 120 and 240 min). At each time point, an aliquot of 120 μl was taken and transferred to a 96-well deep plate. The reaction was stopped with the addition of one volume of 100% acetonitrile plus 0.1% formic acid and the appropriate internal standard. Then samples were centrifuged at 1100×g for 30 min at +4° C. and supernatants were transferred to a new 96-deepwell plate. Samples were evaporated under N2 and reconstituted in H2O/ACN 0.1% Formic Acid (98:2). Analysis was performed without a calibration curve (Acquity UPLC-Waters; Sciex API4000). Time 0 was obtained adding acetonitrile before addition of the test compound. […] The half-life (t1/2) expressed in hours is derived using Equation 1 as shown in Example 64.

[6] = Stability in human plasma; assay type: in vitro ADME; details: 37° C.; for t1/2, Human Plasma, Diastereoisomer B: 3 μM
Method in brief: as §1

[7] = Diastereoisomer A (upfield shift in 31P NMR), read-out: t1/2, Human Hepatocytes, Diastereoisomer A (converted)
[8] = Diastereoisomer B, read-out: t1/2, Human Hepatocytes, Diastereoisomer B (converted)
[9] = Diastereoisomer A (upfield shift in 31P NMR), 3 μM, 37° C., mouse plasma, read-out: t1/2, Mouse Plasma, Diastereoisomer A
[10] = Diastereoisomer B, 3 μM, 37° C., mouse plasma
[11] = Diastereoisomer A (upfield shift in 31P NMR), 5 μM, 1 million cells/ml, 37° C., mouse hepatocytes, read-out: t1/2, Mouse Hepatocytes, Diastereoisomer A (converted)
[12] = Diastereoisomer B, 5 μM, 1 million cells/ml, 37° C., mouse hepatocytes, read-out: t1/2, Mouse Hepatocytes, Diastereoisomer B (converted)
[13] = Diastereoisomer A (upfield shift in 31P NMR), read-out: t1/2, Human Plasma, Diastereoisomer A (converted)
[14] = t1/2, Mouse Hepatocytes, Diastereoisomer A
[15] = t1/2, Mouse Hepatocytes, Diastereoisomer B
[16] = human, plasma, Diastereoisomer A (upfield shift in 31P NMR), read-out: t1/2, Human Plasma, Diastereoisomer A (converted)
[17] = human, plasma, Diastereoisomer B, read-out: t1/2, Human Plasma, Diastereoisomer B (converted)

Row | Structure (SMILES) | half-life at 5 µM ([1]; Diastereoisomer A) | Papp A→B at 60 min [2] | PANK2−/− CoA (Fold Increase): fold increase in Coenzyme A (CoA) levels relative to controls [3] | half-life [1, 7] | half-life [1, 8] | half-life at 3 µM [4, 9] | t1/2, Mouse Plasma, Diastereoisomer B [4, 10] | half-life at 5 µM [5, 11] | half-life at 5 µM [5, 12] | half-life at 3 µM [6, 13] | t1/2, Human Plasma, Diastereoisomer B ([6]; Diastereoisomer B) | half-life at 5 µM ([1]; Diastereoisomer B) | half-life at 3 µM ([4]; mouse, plasma) | t1/2, Mouse Plasma, Diastereoisomer B ([4]; mouse, plasma, 3 µM) | half-life at 5 µM [5, 14] | half-life at 5 µM [5, 15] | half-life at 3 µM [6, 16] | half-life at 3 µM [6, 17]
1 | COC(=O)CCNC(=O)[C@@H]1O[P@@](=O)(OCC(F)(F)F)OCC1(C)C [2-138, methyl 3-((2R,4R)-5,5-dimethyl-2-oxido-2-(2,2,2-trifluoroethoxy)-1,3,2-dioxaphosphinane-4-carboxamido)propanoate] | > 240 min | 15.6 ×10⁻⁶ cm/s | 1.13 Fold Increase |  |  |  |  |  |  |  |  |  |  |  |  |  |  | 
2 | COC(=O)CCNC(=O)[C@@H]1O[P@@](=O)(OCN2C(=O)c3ccccc3S2(=O)=O)OCC1(C)C (single isomer, unassigned) [Compound No. 2-126] |  | 2.74 ×10⁻⁶ cm/s | 138.56 Fold Increase |  |  |  |  |  |  |  |  |  |  |  |  |  |  | 
3 | COC(=O)CCNC(=O)[C@@H]1OP(=O)(N[C@H](C(=O)OC)C(C)C)OCC1(C)C (stereo partly drawn) [compound 1, (2S)-methyl 2-(((4R)-4-((3-methoxy-3-oxopropyl)carbamoyl)-5,5-dimethyl-2-oxido-1,3,2-dioxaphosphinan-2-yl)amino)-3-methylbutanoate] |  |  | 1.51 Fold Increase | 77.4 min | 78.6 min | < 9.6 min | <9.6 min | 25.8 min | < 15 min | > 60 min | >1 h |  |  |  |  |  |  | 
4 | CC(C)(C)C(=O)OCO[P@@]1(=O)OCC(C)(C)[C@H](C(=O)NCCC(=O)OCCS(C)(=O)=O)O1 (single isomer, unassigned) [Compound No. 78] | 26.4 min |  | 120.6 Fold Increase |  |  |  |  |  |  |  |  | 19.8 min | < 9.6 min | <9.6 min | < 15 min | < 15 min | > 60 min | < 9.6 min
5 | COC(=O)CCNC(=O)[C@@H]1OP(=O)(NCC(=O)OCc2ccccc2)OCC1(C)C (stereo partly drawn) [compound 118, methyl 3-((4R)-2-((2-(benzyloxy)-2-oxoethyl)amino)-5,5-dimethyl-2-oxido-1,3,2-dioxaphosphinane-4-carboxamido) propanoate] |  |  | 2.96 Fold Increase | 25.8 min | < 15 min | < 9.6 min | <9.6 min | < 15 min | < 15 min | > 60 min | >1 h |  |  |  |  |  |  | 
6 | COC(=O)CCNC(=O)[C@@H]1OP(=O)(OC(C)OC(=O)c2ccccc2)OCC1(C)C (stereo partly drawn) [compound 98, 1-(((4R)-4-((3-methoxy-3-oxopropyl)carbamoyl)-5,5-dimethyl-2-oxido-1,3,2-dioxaphosphinan-2-yl)oxy)ethyl benzoate] | < 15 min |  | 4.01 Fold Increase |  |  |  |  |  |  |  |  | < 15 min | < 9.6 min | <9.6 min | < 15 min | < 15 min | > 60 min | 18 min
7 | CC(C)OC(=O)OCO[P@@]1(=O)OCC(C)(C)[C@H](C(=O)NCCC(=O)O)O1 [2-130, 3-((2S,4R)-2-(((isopropoxycarbonyl)oxy)methoxy)-5,5-dimethyl-2-oxido-1,3,2-dioxaphosphinane-4-carboxamido)propanoic acid] |  | 1.84 ×10⁻⁶ cm/s | 43.5 Fold Increase |  |  |  |  |  |  |  |  |  |  |  |  |  |  | 
8 | COC(=O)CCNC(=O)[C@@H]1O[P@](=O)(OCOC(=O)C(C)(C)C)OCC1(C)C (single isomer, unassigned) [Compound No. 89] | < 15 min |  | 154.1 Fold Increase |  |  |  |  |  |  |  |  |  | < 9.6 min |  | < 15 min |  | < 9.6 min | 
9 | COC(=O)CCNC(=O)[C@@H]1OP(=O)(OCOC(=O)c2ccc(CN3CCCC3)cc2)OCC1(C)C (stereo partly drawn) [Compound No. 76, (((4R)-4-((3-methoxy-3-oxopropyl)carbamoyl)-5,5-dimethyl-2-oxido-1,3,2-dioxaphosphinan-2-yl)oxy)methyl 4-(pyrrolidin-1-ylmethyl)benzoate] | 31.2 min |  | 79.95 Fold Increase |  |  |  |  |  |  |  |  | < 15 min | < 9.6 min | <9.6 min | < 15 min | < 15 min | < 9.6 min | < 9.6 min

Reference: US10364263B2, “Cyclic phosphates and cyclic phosphoramidates for the treatment of neurologic disorders” (Retrophin, Inc., priority 2015, dated 2019)
